Test results reported in patent US20110054017A1, “SUBSTITUTED FURANS AND THEIR USE” (priority 2008, published 2011).

Target: T1, Prostacyclin Receptors (IP Receptors) of Human Thrombocyte Membranes (Homo sapiens, UniProt P43119)
T1 construct: Thrombocyte membranes are obtained by centrifuging 50 ml human blood; tissue Maco Pharma, Langen; host or cells: human thrombocyte (platelet) membranes prepared from buffy coats
Experiment: Binding to prostacyclin receptors (IP receptors) of human thrombocyte membranes, 3H-Iloprost displacement
Settings: 3 nM 3H-Iloprost, 60 min, room temperature
Procedure: B-1. Studies of Binding to Prostacyclin Receptors (IP Receptors) of Human Thrombocyte Membranes
Thrombocyte membranes are obtained by centrifuging 50 ml human blood (Buffy coats with CDP Stabilizer, from Maco Pharma, Langen) for 20 min at 160×g. Remove the supernatant (platelet-rich plasma, PRP) and then centrifuge again at 2000×g for 10 min at room temperature. Resuspend the sediment in 50 mM tris(hydroxymethyl)aminomethane, which has been adjusted to a pH of 7.4 with 1 N hydrochloric acid, and store at −20° C. overnight. On the next day, centrifuge the suspension at 80 000×g and 4° C. for 30 min. Discard the supernatant. Resuspend the sediment in 50 mM tris(hydroxymethyl)aminomethane/hydrochloric acid, 0.25 mM ethylene diamine tetraacetic acid (EDTA), pH 7.4, and then centrifuge once again at 80 000×g and 4° C. for 30 min. Take up the membrane sediment in binding buffer (50 mM tris(hydroxymethyl)-aminomethane/hydrochloric acid, 5 mM magnesium chloride, pH 7.4) and store at −70° C. until the binding test.
For the binding test, incubate 3 nM ^3H-Iloprost (592 GBq/mmol, from AmershamBioscience) for 60 min with 300-1000 μg/ml human thrombocyte membranes per charge (max. 0.2 ml) in the presence of the test substances at room temperature. After stopping, add cold binding buffer to the membranes and wash with 0.1% bovine serum albumin. After adding Ultima Gold Scintillator, quantify the radioactivity bound to the membranes using a scintillation counter. The nonspecific binding is defined as radioactivity in the presence of 1 μM Iloprost (from Cayman Chemical, Ann Arbor) and is as a rule <25% of the bound total radioactivity. The binding data (IC50 values) are determined using the program GraphPad Prism Version 3.02.

T1 sequence (P43119 whole entry): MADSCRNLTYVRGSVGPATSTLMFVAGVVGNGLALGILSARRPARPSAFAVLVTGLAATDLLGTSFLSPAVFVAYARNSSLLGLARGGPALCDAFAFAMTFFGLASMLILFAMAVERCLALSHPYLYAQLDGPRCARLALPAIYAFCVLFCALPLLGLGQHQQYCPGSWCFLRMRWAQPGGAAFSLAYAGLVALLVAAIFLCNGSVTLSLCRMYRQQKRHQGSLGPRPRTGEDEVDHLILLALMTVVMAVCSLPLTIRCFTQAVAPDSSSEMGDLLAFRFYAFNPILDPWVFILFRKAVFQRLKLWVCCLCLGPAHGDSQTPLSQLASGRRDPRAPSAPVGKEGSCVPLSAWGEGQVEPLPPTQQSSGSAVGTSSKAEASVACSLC

Row | Compound | IC50 [nM]
1 | COC(=O)CCCCCNC(=O)c1c(C)oc(-c2ccccc2)c1-c1ccc(OC)cc1 [Example 4, Methyl 6-({[4-(4-methoxyphenyl)-2-methyl-5-phenylfuran-3-yl]carbonyl}amino)hexanoater] | 470
2 | COc1ccc(-c2c(-c3ccccc3)oc(C)c2C(=O)NC(C)CCCCC(=O)O)cc1 (stereo not drawn) [Example 24] | 476
3 | COc1ccc(-c2c(-c3ccccc3)oc(C)c2C(=O)Nc2cccc(OCC(=O)O)c2)cc1 [Example 20] | 438
4 | COc1ccc(-c2c(-c3ccccc3)oc(C)c2C(=O)N[C@H](C)CCCCC(=O)O)cc1 [Example 26] | 670
5 | CCc1ccc(-c2c(-c3ccccc3)oc(C)c2C(=O)NCCCCCC(=O)O)cc1 [Example 18] | 138
6 | COc1ccc(-c2c(-c3ccccc3)oc(C)c2C(=O)O[C@H](C)CCCCC(=O)O)cc1 [Example 21] | 315
